Measured values published in the supplement of paper PMC10307832.

What was measured:
Test in all cases: relative viability (nuclei count vs DMSO), 5 days (fraction); higher = more cells survive
[1] = compound: C/C(=N\NC(=S)N1CCC1)/C2=CC=CC=N2 + C[C@@H](Oc1cc(-c2cnn(C3CCNCC3)c2)cnc1N)c1c(Cl)ccc(F)c1Cl [Crizotinib] (partner 1 µM)
Summary of the method: (§1)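 Relative viability equals treated-well nuclei counts divided by vehicle-well nuclei counts. Counts came from 4× images of lung cancer cell lines grown in 1536-well plates for 5 days after pin-tool dosing on the day after seeding. Dosing used one drug alone or a fixed anchor-drug dose plus five library-drug doses (not always all listed) in √10 steps, and values are medians of duplicate plates.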

[2] = compound: C/C(=N\NC(=S)N1CCC1)/C2=CC=CC=N2 + Cc1cc(Nc2cc(N3CCN(C)CC3)nc(Sc3ccc(NC(=O)C4CC4)cc3)n2)n[nH]1 [Tozasertib] (partner 0.1 µM)
Summary of the method: as §1

[3] = compound: C/C(=N\NC(=S)N1CCC1)/C2=CC=CC=N2 + Nc1ncn([C@H]2C[C@H](O)[C@@H](CO)O2)c(=O)n1 [Decitabine] (partner 2 µM)
Summary of the method: as §1

[4] = compound: C/C(=N\NC(=S)N1CCC1)/C2=CC=CC=N2 + CS(=O)(=O)CCNCc1ccc(-c2ccc3ncnc(Nc4ccc(OCc5cccc(F)c5)c(Cl)c4)c3c2)o1 [Lapatinib] (partner 2 µM)
Summary of the method: as §1

Cell Line | relative viability ([1]; first compound 0.05 µM) | relative viability ([1]; first compound 0.1581 µM) | relative viability ([1]; first compound 0.5 µM) | relative viability ([1]; first compound 1.581 µM) | relative viability ([1]; first compound 5 µM) | relative viability ([2]; first compound 0.05 µM) | relative viability ([2]; first compound 0.1581 µM) | relative viability ([2]; first compound 0.5 µM) | relative viability ([2]; first compound 1.581 µM) | relative viability ([2]; first compound 5 µM) | relative viability ([3]; first compound 0.05 µM) | relative viability ([3]; first compound 0.1581 µM) | relative viability ([3]; first compound 0.5 µM) | relative viability ([3]; first compound 1.581 µM) | relative viability ([3]; first compound 5 µM) | relative viability ([4]; first compound 0.05 µM) | relative viability ([4]; first compound 0.1581 µM) | relative viability ([4]; first compound 0.5 µM) | relative viability ([4]; first compound 1.581 µM) | relative viability ([4]; first compound 5 µM)
NCI-H1734 | 0.202 | 0.175 | 0.156 | 0.118 | 0.121 | 0.135 | 0.15 | 0.152 | 0.116 | 0.121 | 0.136 | 0.152 | 0.132 | 0.123 | 0.102 | 0.162 | 0.141 | 0.15 | 0.115 | 0.12
NCI-H1755 | 0.753 | 0.664 | 0.16 | 0.174 | 0.176 | 0.465 | 0.305 | 0.213 | 0.278 | 0.258 | 0.503 | 0.664 | 0.311 | 0.271 | 0.346 | 0.249 | 0.173 | 0.195 | 0.205 | 0.191
NCI-H1915 | 0.469 | 0.843 | 0.169 | 0.152 | 0.134 | 0.178 | 0.137 | 0.129 | 0.131 | 0.139 | 0.115 | 0.123 | 0.144 | 0.124 | 0.148 | 0.195 | 0.182 | 0.157 | 0.136 | 0.133
NCI-H1944 | 0.737 | 0.909 | 0.221 | 0.164 | 0.149 | 0.248 | 0.181 | 0.127 | 0.0988 | 0.107 | 0.225 | 0.413 | 0.158 | 0.116 | 0.143 | 0.194 | 0.317 | 0.207 | 0.144 | 0.163
NCI-H1975 | 0.177 | 0.144 | 0.159 | 0.143 | 0.156 | 0.105 | 0.0772 | 0.0873 | 0.101 | 0.0836 | 0.151 | 0.18 | 0.154 | 0.156 | 0.184 | 0.132 | 0.151 | 0.147 | 0.13 | 0.15
NCI-H1993 | 0.588 | 0.536 | 0.571 | 0.509 | 0.443 | 0.479 | 0.466 | 0.449 | 0.513 | 0.51 | 0.42 | 0.497 | 0.342 | 0.431 | 0.381 | 0.59 | 0.634 | 0.619 | 0.58 | 0.543
NCI-H2009 | 0.112 | 0.131 | 0.124 | 0.149 | 0.0903 | 0.103 | 0.148 | 0.143 | 0.183 | 0.149 | 0.114 | 0.155 | 0.144 | 0.136 | 0.117 | 0.141 | 0.16 | 0.151 | 0.161 | 0.0978
NCI-H2023 | 0.1 | 0.0841 | 0.08 | 0.0545 | 0.0727 | 0.063 | 0.0672 | 0.0602 | 0.0657 | 0.0603 | 0.0753 | 0.0791 | 0.067 | 0.0569 | 0.0755 | 0.0813 | 0.0823 | 0.106 | 0.064 | 0.0792
